Test results as given in PubChem BioAssay (NCI).
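GI50 marks 50% less growth. TGI denotes the concentration required for complete inhibition of growth.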

Assays:
Assay in all cases: NCI-60 cell line screen, 384-well format
[1] = tested on: NCI-H460 NSCLC
[2] = tested on: CCRF-CEM leukemia
[3] = tested on: NCI-H23 lung
[4] = tested on: NCI-H226 lung
[5] = tested on: NCI-H322M lung
[6] = tested on: OVCAR-3 ovarian
[7] = tested on: KM12 colon
[8] = tested on: MOLT-4 leukemia
[9] = tested on: COLO 205 colon
[10] = tested on: UO-31 renal
[11] = tested on: HCT-116 colon
[12] = tested on: SF-268 CNS
[13] = tested on: EKVX NSCLC
[14] = tested on: OVCAR-8 ovarian
[15] = tested on: U251 glioblastoma
[16] = tested on: MDA-MB-468 breast
[17] = tested on: MALME-3M melanoma
[18] = tested on: UACC-257 melanoma
[19] = tested on: MCF7 breast
[20] = tested on: NCI/ADR-RES ovarian
[21] = tested on: SNB-75 CNS
[22] = tested on: 786-0 renal
[23] = tested on: A549 NSCLC
[24] = tested on: T-47D breast
[25] = tested on: HCC-2998 colon
[26] = tested on: K-562 leukemia
[27] = tested on: HS 578T breast
[28] = tested on: HOP-62 NSCLC
[29] = tested on: OVCAR-4 ovarian
[30] = tested on: SN12C renal
[31] = tested on: OVCAR-5 ovarian
[32] = tested on: SK-OV-3 ovarian
[33] = tested on: HCT-15 colon
[34] = tested on: DU-145 prostate
[35] = tested on: SK-MEL-5 melanoma
[36] = tested on: HT29 colon
[37] = tested on: SF-539 CNS
[38] = tested on: A498 renal
[39] = tested on: NCI-H522 lung
[40] = tested on: MDA-MB-231 breast
[41] = tested on: SK-MEL-28 melanoma
[42] = tested on: CAKI-1 renal
[43] = tested on: HOP-92 NSCLC
[44] = tested on: SF-295 CNS
[45] = tested on: RPMI-8226 leukemia
[46] = tested on: RXF 393 renal
[47] = tested on: ACHN renal
[48] = tested on: PC-3 prostate
[49] = tested on: MDA-MB-435 melanoma
[50] = tested on: IGROV1 ovarian
[51] = tested on: M14 melanoma
[52] = tested on: SW-620 colon
[53] = tested on: TK-10 renal
[54] = tested on: BT-549 breast
[55] = tested on: SNB-19 CNS
[56] = tested on: LOX IMVI melanoma
[57] = tested on: SR leukemia

SMILES: COc1cccc2c1ccc1nc3cccc(C(=O)N[C@H](C)CN(C)C)c3nc12
- GI50 [1]: 34.4 nM
- TGI [1]: 112 nM
- GI50 [2]: 42.3 nM
- TGI [2]: 160 nM
- GI50 [3]: 91.5 nM
- TGI [3]: 216 nM
- GI50 [4]: 73.4 nM
- TGI [4]: 340 nM
- GI50 [5]: 115 nM
- TGI [5]: 361 nM
- GI50 [6]: 72.9 nM
- TGI [6]: 292 nM
- GI50 [7]: 84.7 nM
- TGI [7]: 881 nM
- GI50 [8]: 15.5 nM
- TGI [8]: 29.1 nM
- GI50 [9]: 12.8 nM
- TGI [9]: 99.9 nM
- GI50 [10]: 56.1 nM
- TGI [10]: 398 nM
- GI50 [11]: 35.3 nM
- TGI [11]: 1080 nM
- GI50 [12]: 63.5 nM
- TGI [12]: 228 nM
- GI50 [13]: 156 nM
- TGI [13]: 380 nM
- GI50 [14]: 96.8 nM
- TGI [14]: 273 nM
- GI50 [15]: 57.8 nM
- TGI [15]: 311 nM
- GI50 [16]: 23.8 nM
- TGI [16]: 63.9 nM
- GI50 [17]: 28.3 nM
- TGI [17]: 68 nM
- GI50 [18]: 104 nM
- TGI [18]: 230 nM
- GI50 [19]: 46.7 nM
- TGI [19]: 1100 nM
- GI50 [20]: 55.2 nM
- TGI [20]: 215 nM
- GI50 [21]: 111 nM
- TGI [21]: 238 nM
- GI50 [22]: 57.5 nM
- TGI [22]: 861 nM
- GI50 [23]: 42.9 nM
- TGI [23]: 904 nM
- GI50 [24]: 117 nM
- TGI [24]: 315 nM
- GI50 [25]: 41.4 nM
- TGI [25]: 162 nM
- GI50 [26]: 45.4 nM
- TGI [26]: 156 nM
- GI50 [27]: 141 nM
- TGI [27]: 289 nM
- GI50 [28]: 56 nM
- TGI [28]: 231 nM
- GI50 [29]: 130 nM
- TGI [29]: 388 nM
- GI50 [30]: 77.4 nM
- TGI [30]: 249 nM
- GI50 [31]: 127 nM
- TGI [31]: 12200 nM
- GI50 [32]: 85 nM
- TGI [32]: 430 nM
- GI50 [33]: 41.3 nM
- TGI [33]: 187 nM
- GI50 [34]: 69.2 nM
- TGI [34]: 524 nM
- GI50 [35]: 35.3 nM
- TGI [35]: 90.4 nM
- GI50 [36]: 103 nM
- TGI [36]: 11800 nM
- GI50 [37]: 52.8 nM
- TGI [37]: 174 nM
- GI50 [38]: 51.1 nM
- TGI [38]: 384 nM
- GI50 [39]: 102 nM
- TGI [39]: 278 nM
- GI50 [40]: 110 nM
- TGI [40]: 393 nM
- GI50 [41]: 123 nM
- TGI [41]: 291 nM
- GI50 [42]: 37.3 nM
- TGI [42]: 2720 nM
- GI50 [43]: 92 nM
- TGI [43]: 1620 nM
- GI50 [44]: 37.6 nM
- TGI [44]: 221 nM
- GI50 [45]: 27.1 nM
- TGI [45]: 74.6 nM
- GI50 [46]: 111 nM
- TGI [46]: 242 nM
- GI50 [47]: 28.3 nM
- TGI [47]: 243 nM
- GI50 [48]: 142 nM
- TGI [48]: 603 nM
- GI50 [49]: 106 nM
- TGI [49]: 229 nM
- GI50 [50]: 61.9 nM
- TGI [50]: 609 nM
- GI50 [51]: 101 nM
- TGI [51]: 225 nM
- GI50 [52]: 29.9 nM
- TGI [52]: 290 nM
- GI50 [53]: 90.5 nM
- TGI [53]: 554 nM
- GI50 [54]: 125 nM
- TGI [54]: 268 nM
- GI50 [55]: 75.2 nM
- TGI [55]: 1050 nM
- GI50 [56]: 45.9 nM
- TGI [56]: 155 nM
- TGI [57]: 20.4 nM
